Publication PMC12573178, “Substrate-Guided Development of HDAC11-Selective Inhibitors Featuring α‑Amino Amide Zinc-Binding Groups” (ACS Omega, 2025)
pIC50: −log10 of the molar value. “Also recorded” adds a separate entry of the source.

Tests used:
SIRT3 = biological target: T1, SIRT3 (Homo sapiens, UniProt Q9NTG7); assay: SIRT3 discontinuous demyristoylation inhibition assay; format: biochemical
T1 sequence (Q9NTG7 1-399): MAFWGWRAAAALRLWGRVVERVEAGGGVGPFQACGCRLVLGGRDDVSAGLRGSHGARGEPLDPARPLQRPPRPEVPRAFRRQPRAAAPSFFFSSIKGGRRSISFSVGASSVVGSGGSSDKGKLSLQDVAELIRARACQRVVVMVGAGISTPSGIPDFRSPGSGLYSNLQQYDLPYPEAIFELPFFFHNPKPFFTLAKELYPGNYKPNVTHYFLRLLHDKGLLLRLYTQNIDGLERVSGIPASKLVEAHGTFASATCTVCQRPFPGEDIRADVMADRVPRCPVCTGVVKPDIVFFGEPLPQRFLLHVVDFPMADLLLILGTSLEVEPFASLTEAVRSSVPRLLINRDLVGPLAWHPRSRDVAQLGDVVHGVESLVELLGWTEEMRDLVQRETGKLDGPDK
Procedure: Inhibition of the enzymatic activity of HDACs was performed continuously for HDAC8, HDAC11, and SIRT2 and discontinuously for SIRT2, 3, and 6 using adequate substrates as described previously. , Experimental details are given in the Supporting Information.
A. HDAC and SIRT deacylase activity assays […]
140 mM NaCl, 10 mM MgCl 2, 1 mM tris(2-carboxyethyl)phosphine (TCEP), and 0.2 mg/ml BSA, pH 7.4 adjusted with NaOH), HDAC11 buffer (20 mM HEPES, 70 µM TCEP and 2 mg/ml BSA, pH 7.4 adjusted with NaOH) or SIRT buffer (20 mM Tris, 150 mM NaCl, 5 mM MgCl2 and 2 mg/ml BSA pH 7.8 adjusted with HCl), respectively. The thiotrifluoracetylated substrate Abz-SRGGK(thio-TFA)FFRR-NH2 (50 µM) […]
Aun is N-(2-aminobenzoyl)-11-aminoundecanoyl, was used for HDAC11 and Ac-EALPKK(Myr)T-C(Fluorescein)-G-NH2 (40 nM) was used for SIRT2 1-3. […]
(substrate, DMSO, and Buffer) controls were included in every measurement and were set as 100% and 0%, respectively. The measured values were normalized accordingly. […]
Reactions were stopped after 20 min by adding a constant volume of reaction mixture to stop solution (5 % acetonitrile (ACN) (v/v) and 1 % trifluoroacetic acid (TFA) (v/v) in dd. H 2O). The samples were analysed using HPLC-UV/VIS at λ Abs = 220 nm, λ Ex = 320 nm und λ Em = 420 nm. […]
100 nM, SIRT3: 200 nM, SIRT6: 500 nM). […] The samples were analysed using HPLC-UV/VIS at λ Abs = 360 nm. […]

[1] = Compound stability in human serum; format: in vitro ADME; conditions: 37 °C, 150 μM 31, after 24 h
Procedure: (§1) H Stability and permeability of 31 […]
(§2) stability was performed as described 21. Briefly, 400 µl of human serum or cell lysate from HEK293 cells (1 mg/ml) were incubated at 37 °C with 150 μM of 31 with 5% (v/v) DMSO. Samples of 45 µl were taken out at different time points and quenched with 50 µl of aqueous urea (6 M) and 100 µl of ACN.
(§3) Following centrifugation, 2 µl of a 2% (m/v) K 2CO3 solution in H2O and 1.5 µl of a 0.2 M Fmoc-OSu in ACN were added to the samples, which were then shaken at 1000 rpm for two hours at room temperature. This enabled the quantification of the residual amount of the compound via UPLC-UV/VIS at 260 nm. Compound peak areas were integrated. The experiments were performed in triplicate.
(§4) After 24h, 7% of 31 remained […]
(§5) detectable in cell lysate, and 20 % of 31 were still present in human serum (Figure S 38). […]
(§6) shown as mean values relative to the peak intensity at 0 h. Error bars represent the SD of three replicates.
(§7) For cell permeability studies, 40 µM of 31 were incubated with HEK293 cells in DMEM medium supplemented with 10 % FCS at 37°C overnight. The cells were harvested, washed extensively with ice-cold PBS and lysed in RIPA buffer. The sample was diluted 1:1 (v/v) with a solution of ACN : H 2O (1:1 )) before analyzing via UPLC-MS. […]

[2] = Compound stability in HEK293 cell lysate; format: in vitro ADME; conditions: HEK293 cell lysate (1 mg/ml), 37 °C, 150 μM 31, after 24 h
Procedure: as §1, §2, §3, §4, §5, §6, §7

HEK293 cells = assay: Cell permeability / uptake, UPLC-MS of cell lysate; format: cell-based; conditions: 40 µM 31, 37 °C overnight, detected by mass spectrometry in cell lysate
Procedure: as §1, §2, §3, §4, §5, §6, §7
B Mass spectrum of the peak detected at 3.62 […]

In the case of CCCCCCCCCCCCSC[C@@H](N)C(=O)NCCCC[C@@H]1NC(=O)[C@H](CCC(N)=O)NC1=O [Compound 31], the pIC50 (SIRT3) was < 4.00, the inhibition at 50 µM (SIRT3; 50 μM 31) was 1.6% and the compound remaining [1] was 20%. For the same compound, the compound remaining [2] was 7% and the “Uptake by HEK293 cells” value (HEK293 cells) was “uptake of compound 31 by HEK293 cells; also recorded: showed uptake by HEK293 cells”.
